Source: patent US20090155209A1, “NOVEL MACROCYCLIC INHIBITORS OF HEPATITIS C VIRUS REPLICATION” (priority 2007, published 2009)

Assays:
[1] = biological target: T1, NS3-NS4 (Hepatitis C virus genotype 1a, UniProt P27958); assay: NS3-NS4 activity, IC50 (Example 37, Table 8); format: biochemical
[2] = biological target: T1, NS3-NS4; assay: cell-based; details: EC50, NS3-NS4 activity

T1 sequence (P27958 1027-1657): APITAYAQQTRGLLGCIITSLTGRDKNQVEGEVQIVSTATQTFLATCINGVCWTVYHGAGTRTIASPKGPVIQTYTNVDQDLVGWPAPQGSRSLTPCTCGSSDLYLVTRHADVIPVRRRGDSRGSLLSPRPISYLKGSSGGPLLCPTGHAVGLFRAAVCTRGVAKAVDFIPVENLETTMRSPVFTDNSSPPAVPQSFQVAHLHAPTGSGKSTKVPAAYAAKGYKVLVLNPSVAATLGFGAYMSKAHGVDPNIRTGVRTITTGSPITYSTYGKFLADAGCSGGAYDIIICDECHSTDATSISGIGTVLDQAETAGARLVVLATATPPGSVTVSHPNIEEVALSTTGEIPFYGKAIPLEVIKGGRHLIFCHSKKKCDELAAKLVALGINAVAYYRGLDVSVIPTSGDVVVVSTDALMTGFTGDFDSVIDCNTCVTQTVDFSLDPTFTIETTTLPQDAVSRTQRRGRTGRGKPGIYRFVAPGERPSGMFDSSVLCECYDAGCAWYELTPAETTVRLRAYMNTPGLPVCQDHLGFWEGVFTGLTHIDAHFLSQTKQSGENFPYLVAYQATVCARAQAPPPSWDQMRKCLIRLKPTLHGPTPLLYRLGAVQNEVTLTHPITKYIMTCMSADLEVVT
T1 sequence (P27958 1658-1711): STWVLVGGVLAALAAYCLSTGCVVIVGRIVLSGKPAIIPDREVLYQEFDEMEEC

Row | SMILES | IC50 [1] | EC50 [2]
1 | CC(C)(C)OC(=O)N[C@H]1CCCCCCC[C@@H]2C[C@@]2(C(=O)NS(=O)(=O)c2ccccc2)NC(=O)[C@@H]2C[C@@H](OC(=O)N3Cc4cccc(F)c4C3)CN2C1=O [Compound 601] | < 100 nM | < 100 nM
2 | O=C1N[C@]2(C(=O)NS(=O)(=O)C3CC3)C[C@H]2/C=C\CCCCC[C@H](Nc2nc(-c3ccc(F)c(F)c3)cs2)C(=O)N2C[C@H](OC(=O)N3Cc4cccc(F)c4C3)C[C@@H]12 [Compound 223] | < 100 nM | < 100 nM
3 | CC(C)(C)O[C@@H]1C[C@H]2C(=O)N[C@]3(C(=O)NS(=O)(=O)C4CC4)C[C@H]3/C=C\CCCCC[C@H](Nc3nc(-c4ccccc4)c(-c4ccccc4)s3)C(=O)N2C1 [Compound 242] | < 100 nM | 1000 to 10000 nM
4 | Cc1cccc(ONC(=O)[C@@]23C[C@H]2/C=C\CCCCC[C@H](NC(=O)OC(C)(C)C)C(=O)N2C[C@H](OC(=O)N4Cc5cccc(F)c5C4)C[C@H]2C(=O)N3)c1 [Compound 702] | < 100 nM | 1000 to 10000 nM
5 | CC(C)(C)OC(=O)N[C@H]1CCCCCCC[C@@H]2C[C@@]2(C(=O)NOc2ccc(-c3ccccc3)cc2)NC(=O)[C@@H]2C[C@@H](OC(=O)N3Cc4cccc(F)c4C3)CN2C1=O [Compound 803] | < 100 nM | 1000 to 10000 nM
6 | Cc1cc(F)ccc1S(=O)(=O)NC(=O)[C@@]12C[C@H]1/C=C\CCCCC[C@H](NC(=O)OC(C)(C)C)C(=O)N1C[C@H](OC(=O)N3Cc4cccc(F)c4C3)C[C@H]1C(=O)N2 [Compound 346] | < 100 nM | < 100 nM
7 | O=C1N[C@]2(C(=O)NS(=O)(=O)C3CC3)C[C@H]2/C=C\CCCCC[C@H](NC(=O)C2(C(F)(F)F)CC2)C(=O)N2C[C@H](OC(=O)N3Cc4cccc(F)c4C3)C[C@@H]12 [Compound 403, (2R,6S,13aS,14aR,16aS,Z)-14a-(cyclopropylsulfonylcarbamoyl)-5,16-dioxo-6-(1-(trifluoromethyl)cyclopropanecarboxamido)-1,2,3,5,6,7,8,9,10,11,13a,14,14a,15,16,16a-hexadecahydrocyclopropa[e]pyrrolo[1,2-a][1,4]diazacyclopentadecin-2-yl 4-fluoroisoindoline-2-carboxylate] | < 100 nM | < 100 nM
8 | CC(C)(C)ONC(=O)[C@@]12C[C@H]1CCCCCCC[C@H](NC(=O)OC(C)(C)C)C(=O)N1C[C@H](OC(=O)N3Cc4cccc(F)c4C3)C[C@H]1C(=O)N2 [Compound 815] | < 100 nM | < 100 nM
9 | Cc1csc(N[C@H]2CCCCC/C=C\[C@@H]3C[C@@]3(C(=O)NS(=O)(=O)C3CC3)NC(=O)[C@@H]3C[C@@H](OC(=O)N4Cc5cccc(F)c5C4)CN3C2=O)n1 [Compound 227] | < 100 nM | < 100 nM
10 | CC(C)(C)OC(=O)N[C@H]1CCCCC/C=C\[C@@H]2C[C@@]2(C(=O)NS(=O)(=O)c2cc(Cl)sc2Cl)NC(=O)[C@@H]2C[C@@H](OC(=O)N3CCc4ccccc4C3)CN2C1=O [Compound 357] | 100 to 1000 nM | 100 to 1000 nM
11 | CC(C)(C)OC(=O)N[C@H]1CCCCCCC[C@@H]2C[C@@]2(C(=O)NS(=O)(=O)c2ccc(Cl)nc2Cl)NC(=O)[C@@H]2C[C@@H](OC(=O)N3Cc4cccc(F)c4C3)CN2C1=O [Compound 637] | < 100 nM | 100 to 1000 nM
12 | CC(C)(C)OC(=O)N[C@H]1CCCCC/C=C\[C@@H]2C[C@@]2(C(=O)NS(=O)(=O)c2cccc(C(F)(F)F)c2)NC(=O)[C@@H]2C[C@@H](OC(=O)N3Cc4cccc(F)c4C3)CN2C1=O [Compound 308] | < 100 nM | < 100 nM
13 | CCC(C)(C)OC(=O)N[C@H]1CCCCC/C=C\[C@@H]2C[C@@]2(C(=O)NS(=O)(=O)c2ccc(Cl)cc2)NC(=O)[C@@H]2C[C@@H](OC(=O)N3Cc4cccc(F)c4C3)CN2C1=O [Compound 336] | < 100 nM | < 100 nM
14 | CC(C)(C)OC(=O)N[C@H]1CCCCC/C=C\[C@@H]2C[C@@]2(C(=O)NS(=O)(=O)Cc2cc(F)ccc2F)NC(=O)[C@@H]2C[C@@H](OC(=O)N3Cc4cccc(F)c4C3)CN2C1=O [Compound 520] | < 100 nM | < 100 nM
15 | O=C1N[C@]2(C(=O)NS(=O)(=O)C3CC3)C[C@H]2/C=C\CCCCC[C@H](Nc2nc(-c3ccc(Cl)cc3)cs2)C(=O)N2C[C@H](OC(=O)N3Cc4cccc(F)c4C3)C[C@@H]12 [Compound 207] | < 100 nM | < 100 nM
16 | CC(C)(C)OC(=O)N[C@H]1CCCCC/C=C\[C@@H]2C[C@@]2(C(=O)NS(=O)(=O)Cc2c(Cl)cccc2Cl)NC(=O)[C@@H]2C[C@@H](OC(=O)N3Cc4cccc(F)c4C3)CN2C1=O [Compound 527] | < 100 nM | < 100 nM
17 | O=C1N[C@]2(C(=O)NS(=O)(=O)C3CC3)C[C@H]2/C=C\CCCCC[C@H](NC(=O)N2CCOCC2)C(=O)N2C[C@H](OC(=O)N3Cc4cccc(F)c4C3)C[C@@H]12 [Compound 414] | < 100 nM | 100 to 1000 nM
18 | Cc1ccccc1S(=O)(=O)NC(=O)[C@@]12C[C@H]1/C=C\CCCCC[C@H](NC(=O)OC1CCC1)C(=O)N1C[C@H](OC(=O)N3Cc4cccc(F)c4C3)C[C@H]1C(=O)N2 [Compound 338] | < 100 nM | < 100 nM

Row | SMILES | IC50 [1] | EC50 [2]
19 | Cc1cc(C)cc(ONC(=O)[C@@]23C[C@H]2CCCCCCC[C@H](NC(=O)OC(C)(C)C)C(=O)N2C[C@H](OC(=O)N4Cc5cccc(F)c5C4)C[C@H]2C(=O)N3)c1 [Compound 807] | < 100 nM | 1000 to 10000 nM
20 | CC(C)(C)OC(=O)N[C@H]1CCCCC/C=C\[C@@H]2C[C@@]2(C(=O)NS(=O)(=O)Cc2ccccc2Cl)NC(=O)[C@@H]2C[C@@H](OC(=O)N3Cc4cccc(F)c4C3)CN2C1=O [Compound 510] | < 100 nM | < 100 nM
21 | Cc1cccc(ONC(=O)[C@@]23C[C@H]2CCCCCCC[C@H](NC(=O)OC(C)(C)C)C(=O)N2C[C@H](OC(=O)N4Cc5cccc(F)c5C4)C[C@H]2C(=O)N3)c1 [Compound 805] | < 100 nM | 1000 to 10000 nM
22 | CC(C)(C)OC(=O)N[C@H]1CCCCC/C=C\[C@@H]2C[C@@]2(C(=O)NOc2cccc(F)c2)NC(=O)[C@@H]2C[C@@H](OC(=O)N3Cc4cccc(F)c4C3)CN2C1=O [Compound 704] | < 100 nM | 1000 to 10000 nM
23 | CC(C)(C)OC(=O)N[C@H]1CCCCC/C=C\[C@@H]2C[C@@]2(C(=O)NS(=O)(=O)Cc2cccc(F)c2)NC(=O)[C@@H]2C[C@@H](OC(=O)N3Cc4cccc(F)c4C3)CN2C1=O [Compound 508] | < 100 nM | 100 to 1000 nM
24 | CC(C)(C)OC(=O)N[C@H]1CCCCC/C=C\[C@@H]2C[C@@]2(C(=O)NS(=O)(=O)c2cccc(Cl)c2)NC(=O)[C@@H]2C[C@@H](OC(=O)N3Cc4cccc(F)c4C3)CN2C1=O [Compound 353] | < 100 nM | < 100 nM
25 | CC(C)(C)OC(=O)N[C@H]1CCCCC/C=C\[C@@H]2C[C@@]2(C(=O)NS(=O)(=O)c2c(F)cccc2F)NC(=O)[C@@H]2C[C@@H](OC(=O)N3Cc4ccccc4C3)CN2C1=O [Compound 364] | < 100 nM | 100 to 1000 nM
26 | Cc1ccccc1S(=O)(=O)NC(=O)[C@@]12C[C@H]1/C=C\CCCCC[C@H](NC(=O)N(C)C(C)(C)C)C(=O)N1C[C@H](OC(=O)N3Cc4cccc(F)c4C3)C[C@H]1C(=O)N2 [Compound 358] | < 100 nM | < 100 nM
27 | O=C1N[C@]2(C(=O)NS(=O)(=O)C3CC3)C[C@H]2/C=C\CCCCC[C@H](Nc2nc(-c3ccc(Br)cc3)cs2)C(=O)N2C[C@H](OC(=O)N3Cc4cccc(F)c4C3)C[C@@H]12 [Compound 220] | < 100 nM | < 100 nM
28 | O=C1N[C@]2(C(=O)NS(=O)(=O)C3CC3)C[C@H]2/C=C\CCCCC[C@H](NC(=O)N2Cc3ccccc3C2)C(=O)N2C[C@H](OC(=O)N3Cc4cccc(F)c4C3)C[C@@H]12 [Compound 422] | < 100 nM | 100 to 1000 nM
29 | Cc1ccc(ONC(=O)[C@@]23C[C@H]2CCCCCCC[C@H](NC(=O)OC(C)(C)C)C(=O)N2C[C@H](OC(=O)N4Cc5cccc(F)c5C4)C[C@H]2C(=O)N3)cc1C [Compound 802] | < 100 nM | 1000 to 10000 nM
30 | CN(C(=O)N[C@H]1CCCCC/C=C\[C@@H]2C[C@@]2(C(=O)NS(=O)(=O)C2CC2)NC(=O)[C@@H]2C[C@@H](OC(=O)N3Cc4cccc(F)c4C3)CN2C1=O)C(C)(C)C [Compound 407, (2R,6S,13aS,14aR,16aS,Z)-6-(3-tert-butyl-3-methylureido)-14a-(cyclopropylsulfonylcarbamoyl)-5,16-dioxo-1,2,3,5,6,7,8,9,10,11,13a,14,14a,15,16,16a-hexadecahydrocyclopropa[e]pyrrolo[1,2-a][1,4]diazacyclopentadecin-2-yl 4-fluoroisoindoline-2-carboxylate] | < 100 nM | < 100 nM
31 | CC(C)(C)OC(=O)N[C@H]1CCCCC/C=C\[C@@H]2C[C@@]2(C(=O)NS(=O)(=O)c2c(F)cccc2F)NC(=O)[C@@H]2C[C@@H](OC(=O)N3Cc4cccc(F)c4C3)CN2C1=O [Compound 306] | < 100 nM | 100 to 1000 nM
32 | CC(C)(C)OC(=O)N[C@H]1CCCCCCC[C@@H]2C[C@@]2(C(=O)NS(=O)(=O)c2cc(Cl)sc2Cl)NC(=O)[C@@H]2C[C@@H](OC(=O)N3Cc4cccc(F)c4C3)CN2C1=O [Compound 606] | < 100 nM | < 100 nM
33 | COc1ccc(S(=O)(=O)NC(=O)[C@@]23C[C@H]2/C=C\CCCCC[C@H](NC(=O)OC(C)(C)C)C(=O)N2C[C@H](OC(=O)N4Cc5cccc(F)c5C4)C[C@H]2C(=O)N3)cc1 [Compound 352] | < 100 nM | < 100 nM
34 | CN(C(=O)N[C@H]1CCCCC/C=C\[C@@H]2C[C@@]2(C(=O)NS(=O)(=O)c2ccc(Cl)cc2)NC(=O)[C@@H]2C[C@@H](OC(=O)N3Cc4cccc(F)c4C3)CN2C1=O)C(C)(C)C [Compound 361] | < 100 nM | < 100 nM
35 | COc1cccc(ONC(=O)[C@@]23C[C@H]2/C=C\CCCCC[C@H](NC(=O)OC(C)(C)C)C(=O)N2C[C@H](OC(=O)N4Cc5cccc(F)c5C4)C[C@H]2C(=O)N3)c1 [Compound 708] | < 100 nM | 1000 to 10000 nM
36 | CC(C)(C)OC(=O)N[C@H]1CCCCC/C=C\[C@@H]2C[C@@]2(C(=O)NOc2cccc(C(F)(F)F)c2)NC(=O)[C@@H]2C[C@@H](OC(=O)N3Cc4cccc(F)c4C3)CN2C1=O [Compound 709] | < 100 nM | 1000 to 10000 nM
